ChEMBL document CHEMBL4828725 (Eur J Med Chem, 2021)

Assays:
Oryza sativa = assay: Inhibition of rice alpha-glucosidase using p-nitrophenyl glycoside as substrate assessed as release of p-nitrophenol at 1000 uM measured by spectrometric assay
[1] = Inhibition of almond beta-glucosidase using p-nitrophenyl glycoside as substrate assessed as release of p-nitrophenol measured by spectrometric assay; set-up: species or system Prunus dulcis
[2] = Inhibition of Penicillium decumbens alpha-L-rhamnosidase using p-nitrophenyl glycoside as substrate assessed as release of p-nitrophenol measured by spectrometric assay
Alpha-galactosidase = Alpha-galactosidase (Coffea arabica, UniProt Q42656); assay: Inhibition of coffee beans alpha-galactosidase using p-nitrophenyl glycoside as substrate assessed as release of p-nitrophenol measured by spectrometric assay
[3] = biological target: T1, Sucrase-isomaltase, intestinal (Rattus norvegicus, UniProt P23739); assay: Inhibition of rat intestinal isomaltase using p-nitrophenyl glycoside as substrate assessed as release of p-nitrophenol measured by spectrometric assay
[4] = Inhibition of rice alpha-glucosidase using p-nitrophenyl glycoside as substrate assessed as release of p-nitrophenol measured by spectrometric assay; set-up: species or system Oryza sativa
[5] = biological target: T2, Alpha-mannosidase (Canavalia ensiformis) (UniProt C0HJB3); assay: Inhibition of jack bean alpha-mannosidase using p-nitrophenyl glycoside as substrate assessed as release of p-nitrophenol at 1000 uM measured by spectrometric assay relative to control
T2 sequence (whole entry): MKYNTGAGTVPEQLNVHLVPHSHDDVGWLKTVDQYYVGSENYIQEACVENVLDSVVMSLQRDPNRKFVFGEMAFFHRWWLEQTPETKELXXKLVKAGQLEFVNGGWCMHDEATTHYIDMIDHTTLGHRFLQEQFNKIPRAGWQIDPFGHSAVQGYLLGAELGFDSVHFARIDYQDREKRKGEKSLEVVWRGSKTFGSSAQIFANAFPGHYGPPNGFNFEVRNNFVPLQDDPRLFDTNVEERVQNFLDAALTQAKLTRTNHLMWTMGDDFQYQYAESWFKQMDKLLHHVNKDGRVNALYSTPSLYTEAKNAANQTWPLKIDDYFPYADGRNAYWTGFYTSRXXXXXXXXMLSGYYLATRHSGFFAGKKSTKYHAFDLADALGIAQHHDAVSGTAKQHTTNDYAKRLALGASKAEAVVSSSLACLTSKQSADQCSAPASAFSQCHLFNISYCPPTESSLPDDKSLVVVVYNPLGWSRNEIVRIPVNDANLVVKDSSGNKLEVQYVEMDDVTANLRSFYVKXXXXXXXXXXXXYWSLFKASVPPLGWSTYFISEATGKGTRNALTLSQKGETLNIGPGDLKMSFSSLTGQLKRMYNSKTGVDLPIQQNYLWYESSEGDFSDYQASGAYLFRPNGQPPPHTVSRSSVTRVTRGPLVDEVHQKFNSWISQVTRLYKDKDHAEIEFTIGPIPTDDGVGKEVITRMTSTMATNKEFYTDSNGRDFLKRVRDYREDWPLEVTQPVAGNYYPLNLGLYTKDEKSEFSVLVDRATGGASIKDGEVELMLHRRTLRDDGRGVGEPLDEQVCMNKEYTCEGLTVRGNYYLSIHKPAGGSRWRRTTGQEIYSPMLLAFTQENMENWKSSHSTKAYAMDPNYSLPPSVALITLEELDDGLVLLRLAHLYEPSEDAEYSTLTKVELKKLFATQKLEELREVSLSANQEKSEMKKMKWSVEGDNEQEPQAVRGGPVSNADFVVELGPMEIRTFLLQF

Prunus dulcis = assay: Inhibition of almond beta-glucosidase using p-nitrophenyl glycoside as substrate assessed as release of p-nitrophenol at 1000 uM measured by spectrometric assay relative to control
Penicillium decumbens = assay: Inhibition of Penicillium decumbens alpha-L-rhamnosidase using p-nitrophenyl glycoside as substrate assessed as release of p-nitrophenol at 1000 uM measured by spectrometric assay relative to control
[6] = Inhibition of bovine liver beta-glucosidase using p-nitrophenyl glycoside as substrate assessed as release of p-nitrophenol measured by spectrometric assay; set-up: species or system Bos taurus
[7] = biological target: Alpha-galactosidase (Coffea arabica) (UniProt Q42656); assay: Inhibition of coffee beans alpha-galactosidase using p-nitrophenyl glycoside as substrate assessed as release of p-nitrophenol at 1000 uM measured by spectrometric assay relative to control
[8] = biological target: T1, Sucrase-isomaltase, intestinal; assay: Inhibition of rat intestinal sucrase using p-nitrophenyl glycoside as substrate assessed as release of p-nitrophenol measured by spectrometric assay
[9] = Inhibition of Aspergillus niger amyloglucosidase using p-nitrophenyl glycoside as substrate assessed as release of p-nitrophenol measured by spectrometric assay
Aspergillus niger = assay: Inhibition of Aspergillus niger amyloglucosidase using p-nitrophenyl glycoside as substrate assessed as release of p-nitrophenol at 1000 uM measured by spectrometric assay relative to control
[10] = biological target: T3, Tissue alpha-L-fucosidase (Bos taurus) (UniProt Q2KIM0); assay: Inhibition of bovine kidney alpha-L-fucosidase using p-nitrophenyl glycoside as substrate assessed as release of p-nitrophenol at 1000 uM measured by spectrometric assay relative to control; type: tissue-based
T3 sequence (whole entry): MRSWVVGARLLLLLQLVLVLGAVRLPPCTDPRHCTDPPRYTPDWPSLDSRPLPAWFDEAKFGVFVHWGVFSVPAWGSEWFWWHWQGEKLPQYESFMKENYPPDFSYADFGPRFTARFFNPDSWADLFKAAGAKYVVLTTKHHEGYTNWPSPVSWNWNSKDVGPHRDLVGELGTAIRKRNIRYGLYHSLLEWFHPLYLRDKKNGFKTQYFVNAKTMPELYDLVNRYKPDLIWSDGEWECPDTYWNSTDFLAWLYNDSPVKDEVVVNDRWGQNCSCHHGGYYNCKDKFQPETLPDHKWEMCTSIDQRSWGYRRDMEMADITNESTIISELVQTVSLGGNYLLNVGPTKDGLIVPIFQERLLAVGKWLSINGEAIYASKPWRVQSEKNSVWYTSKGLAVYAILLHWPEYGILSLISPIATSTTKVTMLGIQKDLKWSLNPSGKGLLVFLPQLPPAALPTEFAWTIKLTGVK

Sus scrofa = species: Sus scrofa; assay: Inhibition of porcine kidney alpha-trehalase using p-nitrophenyl glycoside as substrate assessed as release of p-nitrophenol at 1000 uM measured by spectrometric assay relative to control
[11] = Inhibition of snail beta-mannosidase using p-nitrophenyl glycoside as substrate assessed as release of p-nitrophenol measured by spectrometric assay; set-up: species or system Helix pomatia
Helix pomatia = assay: Inhibition of snail beta-mannosidase using p-nitrophenyl glycoside as substrate assessed as release of p-nitrophenol at 1000 uM measured by spectrometric assay relative to control
[12] = Inhibition of rat intestinal maltase using maltose as substrate assessed as release of D-glucose measured by spectrometric assay
[13] = Inhibition of bovine liver beta-galactosidase using p-nitrophenyl glycoside as substrate assessed as release of p-nitrophenol measured by spectrometric assay; type: tissue-based, Bos taurus
Rattus norvegicus = species: Rattus norvegicus; assay: Inhibition of rat intestinal maltase using maltose as substrate assessed as release of D-glucose at 1000 uM measured by spectrometric assay
[14] = biological target: Beta-glucuronidase (Escherichia coli (strain K12)) (UniProt P05804); assay: Inhibition of Escherichia coli beta-glucuronidase using p-nitrophenyl glycoside as substrate assessed as release of p-nitrophenol at 1000 uM measured by spectrometric assay relative to control
[15] = Inhibition of jack bean alpha-mannosidase using p-nitrophenyl glycoside as substrate assessed as release of p-nitrophenol measured by spectrometric assay; set-up: species or system Canavalia ensiformis
[16] = biological target: T4, Tissue alpha-L-fucosidase (Bos taurus, UniProt Q2KIM0); assay: Inhibition of bovine kidney alpha-L-fucosidase using p-nitrophenyl glycoside as substrate assessed as release of p-nitrophenol measured by spectrometric assay
T4 sequence (Q2KIM0 whole entry): T3 sequence (whole entry)

Beta-glucuronidase = Beta-glucuronidase (Escherichia coli (strain K12), UniProt P05804); assay: Inhibition of Escherichia coli beta-glucuronidase using p-nitrophenyl glycoside as substrate assessed as release of p-nitrophenol measured by spectrometric assay
[17] = Inhibition of porcine kidney alpha-trehalase using p-nitrophenyl glycoside as substrate assessed as release of p-nitrophenol measured by spectrometric assay; set-up: species or system Sus scrofa
Bos taurus [18] = species: Bos taurus; assay: Inhibition of bovine liver beta-glucosidase using p-nitrophenyl glycoside as substrate assessed as release of p-nitrophenol at 1000 uM measured by spectrometric assay relative to control; type: tissue-based
Maltase-glucoamylase = Maltase-glucoamylase (Homo sapiens, UniProt O43451); assay: Inhibition of human alpha-glucosidase
Bos taurus [19] = species: Bos taurus; assay: Inhibition of bovine liver beta-galactosidase using p-nitrophenyl glycoside as substrate assessed as release of p-nitrophenol at 1000 uM measured by spectrometric assay relative to control
[20] = Inhibition of Agrobacterium sp beta-glucosidase using p-nitrophenyl beta-glucoside as substrate assessed as release of p-nitrophenol measured by plate reader assay
[21] = Inhibition of beta-glucosidase (unknown origin); set-up: species or system Homo sapiens

T1 sequence (P23739 1-1013 limits assumed): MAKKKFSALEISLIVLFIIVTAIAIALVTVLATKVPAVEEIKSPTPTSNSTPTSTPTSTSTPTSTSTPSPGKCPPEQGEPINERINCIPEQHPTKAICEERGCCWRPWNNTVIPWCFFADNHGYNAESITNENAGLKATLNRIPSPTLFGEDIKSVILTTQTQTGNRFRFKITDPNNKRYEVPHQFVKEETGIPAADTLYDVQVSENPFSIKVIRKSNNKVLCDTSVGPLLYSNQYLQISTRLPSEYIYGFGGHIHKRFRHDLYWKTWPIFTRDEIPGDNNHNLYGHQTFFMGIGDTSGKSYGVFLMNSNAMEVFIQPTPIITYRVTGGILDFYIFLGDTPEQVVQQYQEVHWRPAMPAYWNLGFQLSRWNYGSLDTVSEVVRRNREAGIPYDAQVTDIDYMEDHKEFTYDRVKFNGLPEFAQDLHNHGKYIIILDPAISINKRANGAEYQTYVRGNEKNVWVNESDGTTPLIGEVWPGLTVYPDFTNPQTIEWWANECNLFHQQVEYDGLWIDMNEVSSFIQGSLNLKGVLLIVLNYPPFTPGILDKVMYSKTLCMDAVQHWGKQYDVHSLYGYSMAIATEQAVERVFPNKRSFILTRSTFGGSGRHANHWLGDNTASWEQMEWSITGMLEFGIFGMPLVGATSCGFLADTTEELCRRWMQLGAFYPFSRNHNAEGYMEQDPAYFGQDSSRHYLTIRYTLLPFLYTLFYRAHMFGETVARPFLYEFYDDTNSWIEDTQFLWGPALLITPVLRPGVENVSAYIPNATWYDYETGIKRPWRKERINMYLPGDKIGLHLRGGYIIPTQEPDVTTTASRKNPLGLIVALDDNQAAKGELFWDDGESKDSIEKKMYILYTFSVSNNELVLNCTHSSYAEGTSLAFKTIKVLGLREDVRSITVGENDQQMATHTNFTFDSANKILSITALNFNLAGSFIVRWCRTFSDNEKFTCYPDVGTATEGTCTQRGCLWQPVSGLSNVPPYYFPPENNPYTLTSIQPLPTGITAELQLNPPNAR
T1 sequence (P23739 1014-1841 limits assumed): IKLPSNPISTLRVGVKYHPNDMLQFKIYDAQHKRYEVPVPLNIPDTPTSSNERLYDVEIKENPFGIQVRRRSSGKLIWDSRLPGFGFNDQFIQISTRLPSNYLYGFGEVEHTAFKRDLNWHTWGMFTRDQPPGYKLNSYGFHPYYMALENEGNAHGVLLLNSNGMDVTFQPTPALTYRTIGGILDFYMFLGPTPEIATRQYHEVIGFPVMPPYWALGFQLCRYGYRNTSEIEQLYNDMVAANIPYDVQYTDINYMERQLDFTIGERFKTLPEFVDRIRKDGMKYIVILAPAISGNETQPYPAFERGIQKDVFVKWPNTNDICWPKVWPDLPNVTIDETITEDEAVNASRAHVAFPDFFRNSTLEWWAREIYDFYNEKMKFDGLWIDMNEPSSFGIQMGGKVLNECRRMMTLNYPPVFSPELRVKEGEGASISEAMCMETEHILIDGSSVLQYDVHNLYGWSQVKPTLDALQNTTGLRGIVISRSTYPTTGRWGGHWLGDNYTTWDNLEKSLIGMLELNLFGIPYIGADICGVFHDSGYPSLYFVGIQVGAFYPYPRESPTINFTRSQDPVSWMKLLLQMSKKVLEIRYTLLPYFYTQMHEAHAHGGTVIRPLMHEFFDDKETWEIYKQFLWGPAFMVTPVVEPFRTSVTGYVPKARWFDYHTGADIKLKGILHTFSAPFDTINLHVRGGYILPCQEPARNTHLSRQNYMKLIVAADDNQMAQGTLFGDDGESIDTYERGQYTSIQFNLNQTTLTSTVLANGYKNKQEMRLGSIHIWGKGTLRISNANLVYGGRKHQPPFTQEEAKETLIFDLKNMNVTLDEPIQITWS
Sequence of Alpha-galactosidase (Q42656 whole entry): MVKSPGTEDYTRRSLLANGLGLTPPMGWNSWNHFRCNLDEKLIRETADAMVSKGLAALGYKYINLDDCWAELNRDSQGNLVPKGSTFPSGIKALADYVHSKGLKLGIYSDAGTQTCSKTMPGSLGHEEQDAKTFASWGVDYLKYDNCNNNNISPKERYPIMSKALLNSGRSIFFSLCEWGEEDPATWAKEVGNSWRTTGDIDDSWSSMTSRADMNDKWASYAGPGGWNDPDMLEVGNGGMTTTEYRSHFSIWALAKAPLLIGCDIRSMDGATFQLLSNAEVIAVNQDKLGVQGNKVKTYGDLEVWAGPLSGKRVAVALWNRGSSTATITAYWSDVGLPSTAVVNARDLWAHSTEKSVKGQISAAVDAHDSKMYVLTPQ
Sequence of Alpha-galactosidase (Coffea arabica) (Q42656 16-378 limits assumed): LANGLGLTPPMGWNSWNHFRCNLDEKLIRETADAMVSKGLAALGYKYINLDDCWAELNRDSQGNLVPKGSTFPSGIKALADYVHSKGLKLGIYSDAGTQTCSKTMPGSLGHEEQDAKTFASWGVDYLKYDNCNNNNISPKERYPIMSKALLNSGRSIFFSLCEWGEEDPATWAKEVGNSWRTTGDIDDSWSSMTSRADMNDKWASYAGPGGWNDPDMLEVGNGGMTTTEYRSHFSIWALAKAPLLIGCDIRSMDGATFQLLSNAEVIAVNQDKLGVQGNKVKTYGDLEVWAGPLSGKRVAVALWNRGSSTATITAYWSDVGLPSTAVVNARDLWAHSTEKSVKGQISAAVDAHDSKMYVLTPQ
Sequence of Beta-glucuronidase (P05804 whole entry): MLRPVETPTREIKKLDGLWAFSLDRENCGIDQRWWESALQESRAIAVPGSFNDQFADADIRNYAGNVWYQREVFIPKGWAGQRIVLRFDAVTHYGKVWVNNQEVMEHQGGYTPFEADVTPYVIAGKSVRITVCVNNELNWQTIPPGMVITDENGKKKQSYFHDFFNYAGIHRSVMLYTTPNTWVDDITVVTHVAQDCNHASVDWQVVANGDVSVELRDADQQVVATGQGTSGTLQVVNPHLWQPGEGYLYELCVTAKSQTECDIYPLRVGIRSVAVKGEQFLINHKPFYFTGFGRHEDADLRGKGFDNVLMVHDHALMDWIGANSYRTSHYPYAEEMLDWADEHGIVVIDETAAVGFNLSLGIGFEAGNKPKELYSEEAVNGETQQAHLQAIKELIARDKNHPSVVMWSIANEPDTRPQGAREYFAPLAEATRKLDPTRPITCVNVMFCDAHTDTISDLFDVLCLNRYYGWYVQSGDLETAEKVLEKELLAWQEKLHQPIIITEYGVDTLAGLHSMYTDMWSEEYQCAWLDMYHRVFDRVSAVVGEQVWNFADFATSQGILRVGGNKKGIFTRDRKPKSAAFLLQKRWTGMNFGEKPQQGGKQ
Sequence of Beta-glucuronidase (Escherichia coli (strain K12)) (P05804 whole entry, looked up): as the sequence (P05804 whole entry) above

Row | Structure (SMILES) | inhibition (Oryza sativa) | IC50 [1] | IC50 [2] | IC50 (Alpha-galactosidase) | inhibition [5] | inhibition (Prunus dulcis) | inhibition (Penicillium decumbens) | inhibition [7] | IC50 [9] | inhibition (Aspergillus niger) | inhibition [10] | IC50 [11] | inhibition (Helix pomatia) | IC50 [12] | inhibition [14] | IC50 [15] | IC50 [16] | IC50 (Beta-glucuronidase) | IC50 [6] | inhibition (Bos taurus [18]) | other results
1 | CCCCCCCCCCCC[C@@]1(CO)NC[C@H](O)[C@@H](O)[C@@H]1O.Cl | 33.6% | Not Active | Not Active | Not Active | 3.3% | 7.6% | 1.2% | 0% | Not Active | 0% | 0% | Not Active | 0.5% | 660 µM | 13.9% | Not Active | Not Active | Not Active |  |  | IC50 [3]: Not Active; IC50 [4]: Not Active; IC50 ([6]; read-out: IC50): 47 µM; IC50 [8]: Not Active; inhibition (Sus scrofa): 0%; IC50 ([13]; read-out: IC50): 17 µM; inhibition (Rattus norvegicus): 2.3%; IC50 [17]: Not Active
2 | CCCCCCCCCCC[C@@]1(CO)NC[C@H](O)[C@@H](O)[C@@H]1O.Cl | 17.6% | Not Active | Not Active | Not Active | 3.3% | 5.2% | 4.8% | 1.6% | Not Active | 0% | 1.1% | Not Active | 0% | 765 µM | 5.3% | Not Active | Not Active | Not Active | Not Active | 29.8% | IC50 [3]: Not Active; IC50 [4]: Not Active; IC50 [8]: Not Active; inhibition (Sus scrofa): 0%; IC50 ([13]; read-out: IC50): 100 µM; inhibition (Rattus norvegicus): 4.6%; IC50 [17]: Not Active
3 | C[C@]1(CO)NC[C@H](O)[C@@H](O)[C@@H]1O.Cl |  | Not Active | Not Active |  | 2.1% | 6.7% | 2.4% |  | Not Active | 8% | 0% | Not Active | 2% | 0.053 µM | 0% | Not Active | Not Active | Not Active | Not Active | 9.5% | IC50 (Maltase-glucoamylase): 1000 nM; IC50 (Alpha-galactosidase; read-out: IC50): 7.5 µM; inhibition (Bos taurus [19]): 11.9%; IC50 ([3]; read-out: IC50): 960 nM; IC50 ([4]; read-out: IC50): 15.5 nM; IC50 ([8]; read-out: IC50): 200 nM; IC50 [13]: Not Active; IC50 ([17]; read-out: IC50): 42 µM
4 | C#Cc1ccc(C(=O)OCCCCCCN2C[C@H](O)[C@@H](O)[C@H](O)[C@H]2CO)cc1 |  |  |  |  |  |  |  |  |  |  |  |  |  |  |  |  |  |  |  |  | IC50 [20]: 2200 nM
5 | OC[C@H]1NC[C@H](O)[C@@H](O)[C@@H]1O [DUVOGLUSTAT] |  | Not Active | Not Active | Not Active | 17.4% | 12.1% | 45.6% | 13.7% |  |  | 1% | Not Active | 4.8% | 0.12 µM | 0.8% | Not Active | Not Active | Not Active | Not Active | 4.6% | IC50 [21]: 270 nM; inhibition (Bos taurus [19]): 0%; IC50 ([4]; read-out: IC50): 440 nM; IC50 ([9]; read-out: IC50): 763 µM; IC50 [13]: Not Active; IC50 ([17]; read-out: IC50): 48 µM
